Results on 36 molecules are retold here after PubChem BioAssay AID624129 (Sanford-Burnham Center for Chemical Genomics, 2012).

The target in this assay is C-X-C chemokine receptor type 6 (Homo sapiens) (UniProt O00574). Briefly: CXCR6 receptor antagonists, dose response, cell-based, beta-arrestin, DiscoveRx, APJ panel, uHTS hits (AID 624129). Conditions: CXCR6 beta-arrestin (DiscoveRx) antagonist cell assay; for outcome: CXCR6, dose range 1; for inhibition: CXCR6, run 2, dose range 1, at 79 µM (top of the series).
[1] abbreviates: CXCR6, dose range 1, mean IC50 across replicates.

Activity calls are given as the source filed them. The rule behind the calls is not given here.

C-X-C chemokine receptor type 6 (Homo sapiens), sequence (O00574 whole entry, looked up): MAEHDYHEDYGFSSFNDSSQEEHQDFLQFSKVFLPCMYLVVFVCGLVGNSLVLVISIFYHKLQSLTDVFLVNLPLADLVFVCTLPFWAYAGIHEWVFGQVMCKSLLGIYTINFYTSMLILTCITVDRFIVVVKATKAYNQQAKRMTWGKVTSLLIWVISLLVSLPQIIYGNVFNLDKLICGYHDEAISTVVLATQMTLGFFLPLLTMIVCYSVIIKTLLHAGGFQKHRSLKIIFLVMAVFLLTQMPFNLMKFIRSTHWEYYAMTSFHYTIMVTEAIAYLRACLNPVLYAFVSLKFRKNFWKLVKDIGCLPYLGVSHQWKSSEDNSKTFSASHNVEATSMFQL

In the case of `Cc1ccccc1CS(=O)(=O)c1ncc(Cl)c(C(=O)Nc2ccc(F)cc2)n1`, the outcome was inactive and the inhibition (as a rule, the relative decrease from the control value, in per cent) is 109%. In addition, the IC50 (in general, the concentration at which inhibition is half-maximal) under setting [1] was 17.1 µM. Also, the IC50 (CXCR6, run 1, dose range 2) stood at 15.4 µM. For the same molecule, where the note is “CXCR6, run 2, dose range 2”, the IC50 is 18.9 µM.
For `CC(Oc1ccccc1)C(=O)Nc1nc(-c2ccccn2)cs1` (stereo not given), in that order: “inactive”, 97.6%, 14.3 µM, 11.4 µM and 17.3 µM.
For `CN(c1ccccc1)c1ccc(/C=C/[N+](=O)[O-])cc1`, in that order: “inactive”, 114%, 11.4 µM, 10.3 µM and 12.5 µM.
Consider `C=CC[C@H](CC(=O)N(CCO)Cc1ccccc1)C(=O)NC[C@H](OC(=O)[C@@H](CC=C)CC(=O)OC(C)(C)C)c1ccccc1`, for which the result was inactive and the inhibition stood at 76.8%. In addition, the IC50 under setting [1] came out at 31 µM. Besides, the IC50 (CXCR6, run 1, dose range 2) is 33.1 µM. Moreover, under “CXCR6, run 2, dose range 2”, the IC50 turned out to be 29 µM.
The like results for `Cc1cccc(CS(=O)(=O)c2ncc(Cl)c(C(=O)NCc3ccc4c(c3)OCO4)n2)c1` were, in that order, “inactive”, 109%, 16.9 µM, 15.7 µM and 18 µM.
On to `CC1(C)CC[C@]2(C(=O)n3ccnc3)CC[C@]3(C)[C@H](C(=O)C=C4[C@@]5(C)C=C(C#N)C(=O)C(C)(C)[C@@H]5CC[C@]43C)[C@@H]2C1`, for which the result was inactive and the inhibition stood at 105%. Also, the IC50 under setting [1] came out at 16.4 µM. Under “CXCR6, run 1, dose range 2”, this molecule returned an IC50 of 14.4 µM. For the same molecule, the IC50 (CXCR6, run 2, dose range 2) came out at 18.4 µM.
For `Nc1ccccc1C#CC(=O)c1ccccc1`, in that order: “inactive”, 111%, 14.8 µM, 14.2 µM and 15.3 µM.
Take `CC1=C(C)CC2C(C1)C(=O)c1ccc(Br)cc1S2(=O)=O` (stereo not given): the outcome was inactive and the inhibition came to 50.8%. The molecule further showed an IC50 under setting [1] of 30.5 µM. This molecule came in with an IC50 (CXCR6, run 1, dose range 2) of 37.3 µM. Under “CXCR6, run 2, dose range 2”, this molecule had a concentration for half-maximal inhibition (IC50) of 23.7 µM.
Consider `Cc1ccccc1CS(=O)(=O)c1nnc([C@H](Cc2ccccc2)NC(=O)OC(C)(C)C)o1`, for which the outcome was inactive and the inhibition stood at 110%. Moreover, the IC50 under setting [1] was 15.9 µM. Also, the IC50 (CXCR6, run 1, dose range 2) came to 16 µM. The molecule further gave an IC50 (CXCR6, run 2, dose range 2) of 15.7 µM.
As to `O=C(N/N=C/c1ccc([N+](=O)[O-])o1)c1sc2ccccc2c1Cl`, the outcome was inactive and the inhibition turned out to be 97%. Moreover, the concentration for half-maximal inhibition (IC50) under setting [1] turned out to be 19.5 µM. In addition, for the setting “CXCR6, run 1, dose range 2”, the IC50 was 19.2 µM. For the same molecule, the 50% inhibitory concentration (IC50) (CXCR6, run 2, dose range 2) was found to be 19.9 µM.
In the case of `COc1ccc(CNC(=O)c2nc(S(=O)(=O)Cc3ccccc3)ncc2Cl)cc1`, the outcome was inactive and the inhibition worked out at 108%. Under setting [1], this molecule gave an IC50 of 17.9 µM. Further, the IC50 (CXCR6, run 1, dose range 2) was 15.1 µM. This molecule came in with an IC50 (CXCR6, run 2, dose range 2) of 20.7 µM.
The like results for `CN(C)/C=C/c1oc2ccc(O)cc2c1[N+](=O)[O-]` were, in that order, “inactive”, 93.1%, 17.5 µM, 18.5 µM and 16.4 µM.
The like results for `COc1ccc(C(=O)NC(=S)Nc2ccc([N+](=O)[O-])cc2C)cc1OC` were, in that order, “inactive”, 100%, 21.7 µM, 18.3 µM and 25.1 µM.
For the molecule `CCCOc1ccc(CN(CCC#N)C(=S)NC(=O)c2ccccc2)cc1`, the outcome was inactive and the inhibition is 68.9%. Under setting [1], the IC50 stood at 20 µM. This molecule gave an IC50 (CXCR6, run 1, dose range 2) of 10.4 µM. This molecule registered an IC50 (CXCR6, run 2, dose range 2) of 29.6 µM.
In the case of `Cc1ccc(C(=O)NNC(=S)NC(=O)c2ccccc2)cc1`, the outcome was inactive and the inhibition was 84.4%. This molecule showed an IC50 under setting [1] of 20.1 µM. Where the note is “CXCR6, run 1, dose range 2”, the IC50 came to 18 µM. The molecule also yielded an IC50 (CXCR6, run 2, dose range 2) of 22.2 µM.
As to `O=C(NCc1ccc2c(c1)OCO2)c1nc(S(=O)(=O)Cc2ccccc2F)ncc1Cl`, the result was inactive and the inhibition stood at 111%. For the same molecule, under setting [1], the IC50 was determined as 16.3 µM. The molecule further registered an IC50 (CXCR6, run 1, dose range 2) of 15.6 µM. In addition, the IC50 (CXCR6, run 2, dose range 2) was found to be 17 µM.
With `O=C1C=CC2C3C(=O)N(c4ccccc4)C(=O)C3C1N2Cc1ccccc1` (stereo not given), the result was inactive and the inhibition amounted to 108%. Under setting [1], this molecule gave an IC50 of 21.5 µM. This molecule also came in with an IC50 (CXCR6, run 1, dose range 2) of 19.5 µM. Where the note is “CXCR6, run 2, dose range 2”, this molecule showed an IC50 of 23.5 µM.
The like results for `Cc1cc(C)nc(S/C=C/C(=O)c2ccccc2)n1` were, in that order, “inactive”, 107%, 25.1 µM, 22.6 µM and 27.5 µM.
For the molecule `C=C1CCN([C@@H](Cc2ccccc2)C(=O)NCCC(C)C)S(=O)(=O)c2ccccc21`, the outcome was inactive and the inhibition was found to be 69.3%. This molecule showed an IC50 under setting [1] of 15.2 µM. Also, the IC50 (CXCR6, run 1, dose range 2) amounted to 17.1 µM. Further, for the setting “CXCR6, run 2, dose range 2”, the IC50 stood at 13.3 µM.
As to `O=C(Nc1ccccc1)c1ccc(Nc2c([N+](=O)[O-])cc([N+](=O)[O-])c3ccccc23)cc1`, the outcome was inactive and the inhibition was 98.6%. Besides, the half-inhibitory concentration (IC50) under setting [1] came to 44.4 µM. For the setting “CXCR6, run 1, dose range 2”, this molecule showed an IC50 of 65.1 µM. This molecule also displayed an IC50 (CXCR6, run 2, dose range 2) of 23.6 µM.
The like results for `Cc1ccc(S(=O)(=O)c2ccc([N+](=O)[O-])cn2)cc1` were, in that order, “inactive”, 109%, 11.7 µM, 11.5 µM and 11.9 µM.
In the case of `COC(=O)C1=C(C(=O)OC)SC2(S1)C(C(=O)OC)=C(C(=O)OC)Sc1c2ssc1=O`, the outcome was inactive and the inhibition was found to be 112%. Under setting [1], this molecule yielded a half-maximal inhibitory concentration (IC50) of 23.2 µM. Where the note is “CXCR6, run 1, dose range 2”, this molecule gave an IC50 of 20.3 µM. The IC50 (CXCR6, run 2, dose range 2) is 26 µM.
For `COc1cccc(C(=O)NC(=S)N2CCN(c3ccc(C(F)(F)F)cc3[N+](=O)[O-])CC2)c1`, in that order: “inactive”, 74.3%, 13.5 µM, 13.1 µM and 14 µM.
For `CC(=O)Nc1ccc2c(c1)Cc1cc(N3C(=O)C=CC3=O)ccc1-2`, in that order: “inactive”, 112%, 14.8 µM, 15.3 µM and 14.3 µM.
The like results for `COc1ccc(C(=O)/C=C/Sc2nc3ccccc3o2)cc1` were, in that order, “inactive”, 61.3%, 44.8 µM, 21.7 µM and 67.8 µM.
In the case of `CCCSc1cc(NCCOC(=O)CCC)c([N+](=O)[O-])c2nonc12`, the outcome was inactive and the inhibition is 112%. This molecule also showed an IC50 under setting [1] of 17.7 µM. Besides, the IC50 (CXCR6, run 1, dose range 2) turned out to be 17.6 µM. In addition, the 50% inhibitory concentration (IC50) (CXCR6, run 2, dose range 2) was 17.9 µM.
The like results for `O=C(Nc1ccccc1Oc1ccccc1)[C@@H]1O[C@H](CO)[C@H](O)[C@H](O)[C@H]1O` were, in that order, “inactive”, 99.6%, 14.2 µM, 12.4 µM and 15.9 µM.
As to `Cc1ccc(NC(=S)NNc2ccc(C(=O)O)cc2[N+](=O)[O-])cc1C`, the outcome was inactive and the inhibition came to 62%. Also, under setting [1], the IC50 came to 48.9 µM. For the setting “CXCR6, run 1, dose range 2”, this molecule showed an IC50 of 48.9 µM. Under “CXCR6, run 2, dose range 2”, this molecule displayed an IC50 above 79 µM.
For the molecule `Nc1nc(N)c2c(ccc3c2ccn3Cc2cccc([N+](=O)[O-])c2)n1`, the outcome was inactive and the inhibition came to 110%. Moreover, the IC50 under setting [1] is 16.9 µM. Under “CXCR6, run 1, dose range 2”, the IC50 was found to be 15.8 µM. Also, for the setting “CXCR6, run 2, dose range 2”, the IC50 amounted to 18 µM.
The like results for `CC1=C(O)C(=O)C=C2C1=CC=C1C2(C)CCC2(C)C3CC(C)(C(=O)O)CCC3(C)CCC12C` (stereo not given) were, in that order, “inactive”, 113%, 19.3 µM, 16.7 µM and 21.9 µM.
The like results for `CCOC(=O)CS(=O)(=O)c1nc(-c2ccccc2)cc(C(F)(F)F)n1` were, in that order, “inactive”, 108%, 18.9 µM, 17.7 µM and 20.2 µM.
The like results for `Nc1cccc2c1C(=O)N(C(=O)/C=C/c1cccc(F)c1)C2=O` were, in that order, “inactive”, 98.3%, 51 µM, 65.1 µM and 37 µM.
Take `COC(=O)/C=C\C(=O)Nc1cccc([N+](=O)[O-])c1`: the outcome was inactive and the inhibition is 111%. In addition, the IC50 under setting [1] came out at 16.6 µM. Under “CXCR6, run 1, dose range 2”, this molecule yielded an IC50 of 18 µM. Besides, the IC50 (CXCR6, run 2, dose range 2) was found to be 15.2 µM.
For `CCCc1cc(=O)oc2cc(OC(=O)CN3C(=O)NC4(CCCC4)C3=O)ccc12`, in that order: “inactive”, 61.7%, 50.5 µM, 50.5 µM and above 79 µM.
For `CC(=O)NS(=O)(=O)c1ccc(Nc2ccc([N+](=O)[O-])c3nonc23)cc1`, in that order: “inactive”, 85.9%, 46.6 µM, 35.6 µM and 57.6 µM.
The like results for `COc1ccc(-c2c(C(=O)c3ccccc3)[nH]c(N)c2C(=O)c2ccccc2)cc1OC` were, in that order, “inactive”, 71.1%, 28.4 µM, 33.1 µM and 23.8 µM.
